Laboratory results taken from US8946216B2, “Indazole derivatives useful as ERK inhibitors” (Merck Sharp & Dohme Corp., priority 2010, dated 2015).

Legend:
ERK protein = ERK protein (Homo sapiens, UniProt P28482); test: TdF (Temperature Dependence Fluorescence, thermal shift) assay for ERK; format: binding; conditions: read-out: TdF Kd; 3 μM ERK protein, 15, 50 or 100 μM compound, Sypro Orange; Kd calculated from ΔTm; uncertainty estimated ±50%
Outline: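 Thermal shift with Sypro Orange: samples containing 3 μM in 2% final DMSO heated 30 to 90 °C at 1 °C/min, fluorescence at ex 490/em 560 nm. Kd derived from ΔTm versus protein alone by the Brandts–Lin model, with ΔCpL set to 0 and ΔHL to −7 kcal/mol; uncertainty ±50%.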

[1] = molecular target: fully phosphorylated, active Mouse ERK2 protein (Mus musculus, UniProt P63085); test: Active ERK2 (aERK) assay, IMAP format; format: biochemical; conditions: 30 min preincubation; 1 μM substrate peptide, 30 μM ATP; fluorescence polarization; read-out: aERK2 IC50
Method: Active ERK2 (aERK) Assay:
Activated ERK2 activity was also determined in the IMAP assay format using the procedure outlined above. 1 μl of 25× compound was added to 14 μl of kinase buffer containing 0.25 ng fully phosphorylated, active Mouse ERK2 protein. Following a 30 minute incubation, the reactions were initiated by addition of 10 μl of kinase buffer containing 1 μM ERK2 IMAP substrate peptide (0.9 μM unlabeled IPTTPITTTYFFFK--CONH2 and 100 nM IPTTPITTTYFFFK(5-carboxyfluorescein)-CONH2) and 30 μM ATP. Reactions proceeded for 30 minutes before termination by addition of 60 μl IMAP detection beads in binding buffer. Plates were read as above after 30 minute binding equilibration. Active compounds were reconfirmed in an independent assay.

[2] = molecular target: unphosphorylated Mouse ERK2 protein (inactive ERK2) (Mus musculus, UniProt P63085); test: Coupled ERK2 (cERK) assay, coupled MEK1/ERK2 IMAP; format: biochemical; conditions: 30 min preincubation with inactive ERK2, then activation by human MEK1; 30 μM ATP; fluorescence polarization; read-out: cERK2 IC50
Outline: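 Compound was preincubated with 0.4 ng unphosphorylated mouse ERK2 in Tris pH 7.2/MgCl2/DTT buffer (6.7% DMSO). ERK2 was then activated for 1 h by 2 ng active human MEK1 with 4 μM IMAP substrate peptide (100 nM fluorescein-labelled) and 30 μM ATP (final, 4% DMSO). Phosphorylation was read by IMAP bead fluorescence polarization after 30 min binding.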

Sequence of fully phosphorylated, active Mouse ERK2 protein (P63085 whole entry): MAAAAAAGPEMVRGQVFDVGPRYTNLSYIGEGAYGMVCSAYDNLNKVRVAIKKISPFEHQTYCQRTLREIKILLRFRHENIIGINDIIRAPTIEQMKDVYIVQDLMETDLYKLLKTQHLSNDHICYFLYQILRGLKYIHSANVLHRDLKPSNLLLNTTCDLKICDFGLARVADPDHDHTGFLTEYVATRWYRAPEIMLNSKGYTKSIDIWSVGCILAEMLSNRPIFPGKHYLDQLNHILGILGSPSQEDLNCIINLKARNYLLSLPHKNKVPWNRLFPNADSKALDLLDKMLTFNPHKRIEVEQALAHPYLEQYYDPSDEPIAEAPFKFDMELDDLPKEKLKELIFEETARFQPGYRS
Sequence of unphosphorylated Mouse ERK2 protein (inactive ERK2) (P63085 whole entry): as above
Sequence of ERK protein (P28482 2-360): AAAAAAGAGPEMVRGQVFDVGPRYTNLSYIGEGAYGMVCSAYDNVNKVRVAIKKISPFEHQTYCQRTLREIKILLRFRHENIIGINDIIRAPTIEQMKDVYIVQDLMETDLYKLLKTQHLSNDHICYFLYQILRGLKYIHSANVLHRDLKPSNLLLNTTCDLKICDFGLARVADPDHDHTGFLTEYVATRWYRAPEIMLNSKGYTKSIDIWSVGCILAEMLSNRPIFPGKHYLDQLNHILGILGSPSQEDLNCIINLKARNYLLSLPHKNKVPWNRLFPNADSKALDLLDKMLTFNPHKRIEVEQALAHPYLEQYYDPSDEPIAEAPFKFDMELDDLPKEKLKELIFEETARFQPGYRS

SMILES | Kd (ERK protein) [nM] | IC50 [1] [nM] | IC50 [2] [nM]
O=C(Nc1ccc2[nH]nc(-c3ccncc3)c2c1)C1CN(Cc2c(F)ccc(Cl)c2F)CCO1 (stereo not drawn) [Compound 47, 4-[(3-CHLORO-2,6-DIFLUOROPHENYL)METHYL]-N-[3-(4-PYRIDINYL)-1H-INDAZOL-5-YL]-2-MORPHOLINECARBOXAMIDE] | 223 | 581 | 452
O=C(Nc1ccc2[nH]nc(-c3ccncc3)c2c1)C1CN(Cc2c(F)ccc(F)c2Cl)CCO1 (stereo not drawn) [Compound 48, 4-[(2-CHLORO-3,6-DIFLUOROPHENYL)METHYL]-N-[3-(4-PYRIDINYL)-1H-INDAZOL-5-YL]-2-MORPHOLINECARBOXAMIDE] | 202 | 371 | 909
O=C(Nc1ccc2[nH]nc(-c3ccncc3)c2c1)C1CNCCC1c1ccc(F)cc1 (stereo not drawn) [Compound 52, 4-(4-FLUOROPHENYL)-N-(3-(PYRIDIN-4-YL)-1H-INDAZOL-5-YL)PIPERIDINE-3-CARBOXAMIDE] | 18 | 56.5 | 60.8
O=C(Nc1ccc2[nH]nc(-c3ccncc3)c2c1)C1CNCCC1c1ccccc1 (stereo not drawn) [Compound 53, 4-PHENYL-N-[3-(4-PYRIDINYL)-1H-INDAZOL-5-YL]-3-PIPERIDINECARBOXAMIDE] | 70 | 102 | 69.5
N#Cc1ccccc1N1CCCC(C(=O)Nc2ccc3[nH]nc(-c4ccncc4)c3c2)C1 (stereo not drawn) [Compound 55, 1-(2-CYANOPHENYL)-N-[3-(4-PYRIDINYL)-1H-INDAZOL-5-YL]-3-PIPERIDINECARBOXAMIDE] | 23 | 82.3 | 91.5
O=C(Nc1ccc2[nH]nc(-c3ccncc3)c2c1)[C@@H]1CN(Cc2ccccc2)CCN1 [Compound 57, 4-(PHENYLMETHYL)-N-[3-(4-PYRIDINYL)-1H-INDAZOL-5-YL]-2(S)-PIPERAZINECARBOXAMIDE] | 49 | 52 | 61.8
O=C(Nc1ccc2[nH]nc(-c3ccncc3)c2c1)C1CN(C(=O)OCc2ccccc2)CCN1 (stereo not drawn) [Compound 58, PHENYLMETHYL 3-[[[3-(4-PYRIDINYL)-1H-INDAZOL-5-YL]AMINO]CARBONYL]-1-PIPERAZINECARBOXYLATE] | 602 | 2200 | 960
O=C(Nc1ccc2[nH]nc(-c3ccncc3)c2c1)[C@H]1CN(Cc2ccccc2)CCN1 [Compound 59, 4-(PHENYLMETHYL)-N-[3-(4-PYRIDINYL)-1H-INDAZOL-5-YL]-2(R)-PIPERAZINECARBOXAMIDE] | 21 | 16.3 | 21.6
O=C(Nc1ccc2[nH]nc(-c3ccncc3)c2c1)[C@H]1CN(Cc2ccccc2F)CCS1 [Compound 61, 4-[(2-FLUOROPHENYL)METHYL]-N-[3-(4-PYRIDINYL)-1H-INDAZOL-5-YL]-2(R)-THIOMORPHOLINECARBOXAMIDE] | 5 | 8.1 | 19.9
CSC1(C(=O)Nc2ccc3[nH]nc(-c4ccncc4)c3c2)CCN(Cc2ccccc2F)C1 (stereo not drawn) [Compound 63, 1-[(2-FLUOROPHENYL)METHYL]-3-(METHYLTHIO)-N-[3-(4-PYRIDINYL)-1H-INDAZOL-5-YL]-3-PYRROLIDINECARBOXAMIDE] | 13.5 | 211 | 121
O=C(Nc1ccc2[nH]nc(-c3ccncc3)c2c1)C1CCN(Cc2ccccc2)C1 (stereo not drawn) [Compound 64, 1-(PHENYLMETHYL)-N-[3-(4-PYRIDINYL)-1H-INDAZOL-5-YL]-3-PYRROLIDINECARBOXAMIDE] | 35.6 | 245 | 171
O=C(Nc1ccc2[nH]nc(-c3ccncc3)c2c1)C1CN(Cc2ccccc2F)CCS1(=O)=O (stereo not drawn) [Compound 70, 4-[(2-FLUOROPHENYL)METHYL]-N-[3-(4-PYRIDINYL)-1H-INDAZOL-5-YL]-2-THIOMORPHOLINECARBOXAMIDE, 1,1-DIOXIDE] | 12 | 13.9 | 17.7

Continued, values first:

Kd (ERK protein) [nM] | IC50 [1] [nM] | IC50 [2] [nM] | SMILES
500 | 8680 | 8840 | O=C(Nc1ccc2[nH]nc(-c3ccncc3)c2c1)C1CN(Cc2cc(Cl)cc(Cl)c2)CCO1 (stereo not drawn) [Compound 50, 4-[(3,5-DICHLOROPHENYL)METHYL]-N-[3-(4-PYRIDINYL)-1H-INDAZOL-5-YL]-2-MORPHOLINECARBOXAMIDE]
420 | 553 | 150 | O=C(Nc1ccc2[nH]nc(-c3ccncc3)c2c1)C1CCCN(C(=O)c2ccccc2)C1 (stereo not drawn) [Compound 56, 1-BENZOYL-N-[3-(4-PYRIDINYL)-1H-INDAZOL-5-YL]-3-PIPERIDINECARBOXAMIDE]
6 | 175 | 72.3 | O=C(Nc1ccc2[nH]nc(-c3ccncc3)c2c1)[C@@H]1CN(Cc2ccccc2F)CCS1 [Compound 60, 4-[(2-FLUOROPHENYL)METHYL]-N-[3-(4-PYRIDINYL)-1H-INDAZOL-5-YL]-2(S)-THIOMORPHOLINECARBOXAMIDE]
29.4 | 100 | 77.1 | O=C(Nc1ccc2[nH]nc(-c3ccncc3)c2c1)C1CCN(Cc2ccccc2F)C1 (stereo not drawn) [Compound 65, 1-[(2-FLUOROPHENYL)METHYL]-N-[3-(4-PYRIDINYL)-1H-INDAZOL-5-YL]-3-PYRROLIDINECARBOXAMIDE]
104 | 439 | 1000 | O=C(Nc1ccc2[nH]nc(-c3ccncc3)c2c1)C1(CO)CCCN(Cc2ccccc2)C1 (stereo not drawn) [Compound 66, 3-(HYDROXYMETHYL)-1-(PHENYLMETHYL)-N-[3-(4-PYRIDINYL)-1H-INDAZOL-5-YL]-3-PIPERIDINECARBOXAMIDE]
4.4 | 2.7 | 8.3 | O=C(Nc1ccc2[nH]nc(-c3ccncc3)c2c1)C1CN(Cc2ccccc2F)CC[S+]1[O-] (stereo not drawn) [Compound 69, 4-[(2-FLUOROPHENYL)METHYL]-N-[3-(4-PYRIDINYL)-1H-INDAZOL-5-YL]-2-THIOMORPHOLINECARBOXAMIDE, 1-OXIDE]
8 | 124 | 69.4 | O=C(Nc1ccc2[nH]nc(-c3ccncc3)c2c1)C1CNCC(c2ccccc2)C1 (stereo not drawn) [Compound 79, 5-PHENYL-N-[3-(4-PYRIDINYL)-1H-INDAZOL-5-YL]-3-PIPERIDINECARBOXAMIDE]
